Patent publication US10363257B2 (ZENITH EPIGENETICS LTD., priority 2013, dated 2019)

Key:
[1] = molecular target: T1, Brd4 bromodomain 1 (BRD4(1)) (Homo sapiens, UniProt O60885); assay: Inhibition of tetra-acetylated histone H4 binding to Brd4 bromodomain 1 (TR-FRET); conditions: tetra-acetylated histone H4 peptide, first bromodomain of Brd4
T1 construct: made in house; host or cells: E. coli BL21(DE3)
Procedure: Proteins were cloned and overexpressed with a N-terminal 6× His tag, then purified by nickel affinity followed by size exclusion chromatography. Briefly, E.coli BL21(DE3) cells were transformed with a recombinant expression vector encoding N-terminally Nickel affinity tagged bromodomains from Brd2, Brd3, Brd4. Cell cultures were incubated at 37° C. with shaking to the appropriate density and induced overnight with IPTG. The supernatant of lysed cells was loaded onto Ni-IDA column for purification. Eluted protein was pooled, concentrated and further purified by size exclusion chromatography. Fractions representing monomeric protein were pooled, concentrated, aliquoted, and frozen at −80° C. for use in subsequent experiments.
Binding of tetra-acetylated histone H4 and BET bromodomains was confirmed by a Time Resolved Fluorescence Resonance Energy Transfer (TR-FRET) method. N-terminally His-tagged bromodomains (200 nM) and biotinylated tetra-acetylated histone H4 peptide (25-50 nM, Millipore) were incubated in the presence of Europium Cryptate-labeled streptavidin (Cisbio Cat. #610SAKLB) and XL665-labeled monoclonal anti-His antibody (Cisbio Cat. #61HISXLB) in a white 96 well microtiter plate (Greiner). For inhibition assays, serially diluted test compound was added to these reactions in a 0.2% final concentration of DMSO. Final buffer concentrations were 30 mM HEPES pH 7.4, 30 mM NaCl, 0.3 mM CHAPS, 20 mM phosphate pH 7.0, 320 mM KF, 0.08% BSA). After a 2-h incubation at room temperature, the fluorescence by FRET was measured at 665 and 620 nm by a SynergyH4 plate reader (Biotek). The binding inhibitory activity was shown by a decrease in 665 nm fluorescence relative to 620 nm. IC50 values were determined from a dose response curve.

[2] = system: human AML MV-4-11 cells; assay: Inhibition of cell proliferation in MV4-11 cells (CellTiter Aqueous One); type: cell-based; conditions: for IC50: MV4-11, 72 h
Procedure: MV4-11 cells: 96-well plates were seeded with 5×10^4 cells per well of exponentially growing human AML MV-4-11 (CRL-9591) cells and immediately treated with two-fold dilutions of test compounds, ranging from 30 μM to 0.2 μM. Triplicate wells were used for each concentration, as well as a media only and three DMSO control wells. The cells and compounds were incubated at 37° C., 5% CO2 for 72 h before adding 20 μL of the CellTiter Aqueous One Solution (Promega) to each well and incubating at 37° C., 5% CO2 for an additional 3-4 h. The absorbance was taken at 490 nm in a spectrophotometer and the percentage of proliferation relative to DMSO-treated cells was calculated after correction from the blank well. IC50 were calculated using the GraphPad Prism software.

[3] = system: c-myc; assay: Inhibition of c-myc expression (mRNA, real-time PCR) in MV4-11 cells; type: cell-based; conditions: Human AML MV4-11 cells, 3 h, cMYC mRNA
Procedure: MV4-11 cells (CRL-9591) were plated at a density of 2.5×10^4 cells per well in 96 well U-bottom plates and treated with increasing concentrations of test compound or DMSO (0.1%) in IMDM media containing 10% FBS and penicillin/streptomycin, and incubated for 3 h at 37° C. Triplicate wells were used for each concentration. Cells were pelleted by centrifugation and harvested using the mRNA Catcher PLUS kit according to manufacturer's instructions. The eluted mRNA isolated was then used in a one-step quantitative real-time PCR reaction, using components of the RNA UltraSense™ One-Step Kit (Life Technologies) together with Applied Biosystems TaqMan® primer-probes for cMYC and Cyclophilin. Real-time PCR plates were run on a VIaTM7 real time PCR machine (Applied Biosystems), data was analyzed, normalizing the Ct values for cMYC to an internal control, prior to determining the fold expression of each sample, relative to the control.

| Structure (SMILES) | IC50 [1] | IC50 [2] | IC50 [3] | Cell Proliferation activity ([2]; 72 h) |
| --- | --- | --- | --- | --- |
| Cc1noc(C)c1-c1cc(N2CCC2=O)c2nc(C)n(Cc3ccccc3)c2c1 [compound 183, 1-(1-benzyl-6-(3,5-dimethylisoxazol-4-yl)-2-methyl-1H-benzo[d]imidazol-4-yl)azetidin-2-one] | ≤ 0.3 µM | 3 to 30 µM | 0.3 to 3 µM | – |
| CCOc1nc2c(NC(C)=O)cc(-c3c(C)noc3C)cc2n1Cc1ccccc1 [compound 120, N-(1-benzyl-6-(3,5-dimethylisoxazol-4-yl)-2-ethoxy-1H-benzo[d]imidazol-4-yl)acetamide] | ≤ 0.3 µM | 0.3 to 3 µM | 0.3 to 3 µM | – |
| Cn1nccc1-c1cnc2nc(NC3CCOCC3)n(Cc3ccccc3)c2c1 [compound 176, 1-benzyl-6-(1-methyl-1H-pyrazol-5-yl)-N-(tetrahydro-2H-pyran-4-yl)-1H-imidazo[4,5-b]pyridin-2-amine] | 0.3 to 3 µM | 0.3 to 3 µM | 0.3 to 3 µM | – |
| Cc1noc(C)c1-c1cc([N+](=O)[O-])c2nc(C)n([C@@H](C)c3ccccc3)c2c1 [compound 125, (S)-3,5-dimethyl-4-(2-methyl-4-nitro-1-(1-phenylethyl)-1H-benzo[d]imidazol-6-yl)isoxazole] | ≤ 0.3 µM | 0.3 to 3 µM | ≤ 0.3 µM | – |
| Cc1noc(C)c1-c1cnc2nc(C)n(Cc3ccccc3)c2c1C [compound 181, 4-(1-benzyl-2,7-dimethyl-1H-imidazo[4,5-b]pyridin-6-yl)-3,5-dimethylisoxazole] | ≤ 0.3 µM | 0.3 to 3 µM | ≤ 0.3 µM | – |
| CCNc1nc2c(N)cc(-c3c(C)noc3C)cc2n1C(C)c1ccccc1 (stereo not drawn) [compound 134, 6-(3,5-dimethylisoxazol-4-yl)-N2-ethyl-1-(1-phenylethyl)-1H-benzo[d]imidazole-2,4-diamine] | ≤ 0.3 µM | ≤ 0.3 µM | ≤ 0.3 µM | – |
| Cc1noc(C)c1-c1cc([N+](=O)[O-])c2nc(C)n([C@H](C)c3ccccc3)c2c1 [compound 126, (R)-3,5-dimethyl-4-(2-methyl-4-nitro-1-(1-phenylethyl)-1H-benzo[d]imidazol-6-yl)isoxazole] | ≤ 0.3 µM | 0.3 to 3 µM | ≤ 0.3 µM | – |
| CC(=O)Nc1cc(-c2c(C)noc2C)cc2c1nc(N1CCC1)n2Cc1ccccc1 [compound 130, N-(2-(azetidin-1-yl)-1-benzyl-6-(3,5-dimethylisoxazol-4-yl)-1H-benzo[d]imidazol-4-yl)acetamide] | ≤ 0.3 µM | 0.3 to 3 µM | 0.3 to 3 µM | – |
| Cc1noc(C)c1Nc1cc(N)c2nc(C)n(Cc3ccccc3)c2c1 [compound 142, 1-benzyl-N6-(3,5-dimethylisoxazol-4-yl)-2-methyl-1H-benzo[d]imidazole-4,6-diamine] | 0.3 to 3 µM | 3 to 30 µM | 0.3 to 3 µM | – |
| Cc1noc(C)c1-c1cnc2nc(NCc3ccncc3)n(Cc3ccccc3)c2c1 [compound 169, 1-benzyl-6-(3,5-dimethylisoxazol-4-yl)-N-(pyridin-4-ylmethyl)-1H-imidazo[4,5-b]pyridin-2-amine] | ≤ 0.3 µM | ≤ 0.3 µM | ≤ 0.3 µM | – |
| CCNc1nc2c([N+](=O)[O-])cc(-c3c(C)noc3C)cc2n1CC1CC1 [compound 159, 1-(cyclopropylmethyl)-6-(3,5-dimethylisoxazol-4-yl)-N-ethyl-4-nitro-1H-benzo[d]imidazol-2-amine] | ≤ 0.3 µM | 0.3 to 3 µM | ≤ 0.3 µM | – |
| Cc1noc(C)c1-c1cnc2nc(NC3CCOCC3)n(Cc3ccccc3)c2c1 [compound 170, 1-benzyl-6-(3,5-dimethylisoxazol-4-yl)-N-(tetrahydro-2H-pyran-4-yl)-1H-imidazo[4,5-b]pyridin-2-amine] | ≤ 0.3 µM | ≤ 0.3 µM | ≤ 0.3 µM | – |
| Cc1noc(C)c1-c1cnc2nc(C3CC3)n(Cc3ccccc3)c2c1 [compound 138, 4-(1-benzyl-2-cyclopropyl-1H-imidazo[4,5-b]pyridin-6-yl)-3,5-dimethylisoxazole] | ≤ 0.3 µM | 0.3 to 3 µM | ≤ 0.3 µM | – |
| Cc1noc(C)c1-c1ccc2c(c1)N(Cc1ccccc1)[C@H](C)C(=O)N2 [compound 174, (R)-4-benzyl-6-(3,5-dimethylisoxazol-4-yl)-3-methyl-3,4-dihydroquinoxalin-2(1H)-one] | ≤ 0.3 µM | 0.3 to 3 µM | 0.3 to 3 µM | – |
| CCc1nc2ncc(-c3c(C)noc3C)cc2n1Cc1ccccc1 [compound 128, 4-(1-benzyl-2-ethyl-1H-imidazo[4,5-b]pyridin-6-yl)-3,5-dimethylisoxazole] | ≤ 0.3 µM | 0.3 to 3 µM | 0.3 to 3 µM | – |

Now from value to compound, other results behind:

| IC50 [1] | IC50 [2] | IC50 [3] | Structure (SMILES) | Cell Proliferation activity ([2]; 72 h) |
| --- | --- | --- | --- | --- |
| ≤ 0.3 µM | 0.3 to 3 µM | 0.3 to 3 µM | Cn1nccc1-c1cc(N)c2c(c1)n(Cc1ccccc1)c(=O)n2C [compound 199, 4-amino-1-benzyl-3-methyl-6-(1-methyl-1H-pyrazol-5-yl)-1H-benzo[d]imidazol-2(3H)-one] | – |
| ≤ 0.3 µM | 0.3 to 3 µM | 0.3 to 3 µM | Cc1oncc1-c1cc(N)c2nc(C)n(Cc3ccccc3)c2c1 [compound 201, 1-benzyl-2-methyl-6-(5-methylisoxazol-4-yl)-1H-benzo[d]imidazol-4-amine] | – |
| ≤ 0.3 µM | 3 to 30 µM | 3 to 30 µM | Cc1noc(C)c1-c1cnc2[nH]c(=O)n(CC3CCC3)c2c1 [compound 203, 1-(cyclobutylmethyl)-6-(3,5-dimethylisoxazol-4-yl)-1H-imidazo[4,5-b]pyridin-2(3H)-one] | – |
| ≤ 0.3 µM | – | 3 to 30 µM | Cc1noc(C)c1-c1cc(Br)c2nc(C)n(CCc3ccccc3)c2c1 [compound 186, 4-(4-bromo-2-methyl-1-phenethyl-1H-benzo[d]imidazol-6-yl)-3,5-dimethylisoxazole] | Not active |
| ≤ 0.3 µM | 0.3 to 3 µM | 0.3 to 3 µM | Cc1noc(C)c1-c1cnc2nc(C)n(CC3CCC3)c2c1 [compound 193, 4-(1-(cyclobutylmethyl)-2-methyl-1H-imidazo[4,5-b]pyridin-6-yl)-3,5-dimethylisoxazole] | – |
| ≤ 0.3 µM | ≤ 0.3 µM | ≤ 0.3 µM | Cc1noc(C)c1-c1cc(N2CC(O)C2)c2nc(C)n(Cc3ccccc3)c2c1 [compound 197, 1-(1-benzyl-6-(3,5-dimethylisoxazol-4-yl)-2-methyl-1H-benzo[d]imidazol-4-yl)azetidin-3-ol] | – |
| ≤ 0.3 µM | 0.3 to 3 µM | 0.3 to 3 µM | Cc1noc(C)c1-c1cnc2nc(N3CCOCC3)n(CC3CCC3)c2c1 [compound 210, 4-(1-(cyclobutylmethyl)-6-(3,5-dimethylisoxazol-4-yl)-1H-imidazo[4,5-b]pyridin-2-yl)morpholine] | – |
| ≤ 0.3 µM | 0.3 to 3 µM | ≤ 0.3 µM | Cc1noc(C)c1-c1cnc2nc(NCCO)n(Cc3ccccc3)c2c1 [compound 196, 2-((1-benzyl-6-(3,5-dimethylisoxazol-4-yl)-1H-imidazo[4,5-b]pyridin-2-yl)amino)ethanol] | – |
| ≤ 0.3 µM | ≤ 0.3 µM | ≤ 0.3 µM | Cc1noc(C)c1-c1cnc2nc(NCc3ccccn3)n(Cc3ccccc3)c2c1 [compound 194, 1-benzyl-6-(3,5-dimethylisoxazol-4-yl)-N-(pyridin-2-ylmethyl)-1H-imidazo[4,5-b]pyridin-2-amine] | – |
| ≤ 0.3 µM | 0.3 to 3 µM | 0.3 to 3 µM | Cc1noc(C)c1-c1cnc2nc(NCCN(C)C)n(Cc3ccccc3)c2c1 [compound 212, N1-(1-benzyl-6-(3,5-dimethylisoxazol-4-yl)-1H-imidazo[4,5-b]pyridin-2-yl)-N2,N2-dimethylethane-1,2-diamine] | – |
